The values below come from ChEMBL document CHEMBL1154484, “A QSAR study for the cytotoxic activities of taxoids against macrophage (MPhi)-like cells” (Eur J Med Chem, 2009).

A short description of data set [1]: Cytotoxicity against mouse J774.1 cells. In kind it is cell-based.
Data set [2] is described as follows: Cytotoxicity against mouse J7.DEF.3 cells. In kind it is cell-based.

On to `CC(=O)O[C@H]1C(=O)[C@@]2(C)[C@H]([C@H](OC(=O)c3ccccc3)[C@]3(O)C[C@H](OC(=O)[C@H](O)[C@@H](NC(=O)Cc4ccccc4)c4ccccc4)C(C)=C1C3(C)C)[C@]1(OC(C)=O)CO[C@@H]1C[C@@H]2O`, for which the “log(1/C)” value in data set [1] was found to be 7.11; in data set [2], 7.32.

As for `CC(=O)O[C@H]1C(=O)[C@@]2(C)[C@H]([C@H](OC(=O)c3ccccc3)[C@]3(O)C[C@H](OC(=O)[C@H](O)[C@@H](NC(=O)c4ccc(F)cc4F)c4ccccc4)C(C)=C1C3(C)C)[C@]1(OC(C)=O)CO[C@@H]1C[C@@H]2O`, the entries for the “log(1/C)” value in data set [1] and in data set [2] were 7.59 and 7.6, respectively.

As to `CC(=O)O[C@H]1C(=O)[C@@]2(C)[C@H]([C@H](OC(=O)c3ccccc3)[C@]3(O)C[C@H](OC(=O)[C@H](O)[C@@H](NC(=O)c4ccc5ccccc5c4)c4ccccc4)C(C)=C1C3(C)C)[C@]1(OC(C)=O)CO[C@@H]1C[C@@H]2O`, the “log(1/C)” value in data set [1] is on record as 7.68; in data set [2], 7.26.

In the case of `COc1ccc(C(=O)N[C@@H](c2ccccc2)[C@@H](O)C(=O)O[C@H]2C[C@@]3(O)[C@@H](OC(=O)c4ccccc4)[C@@H]4[C@]5(OC(C)=O)CO[C@@H]5C[C@H](O)[C@@]4(C)C(=O)[C@H](OC(C)=O)C(=C2C)C3(C)C)cc1OC`, the entries for the “log(1/C)” value in data set [1] and in data set [2] were 7.21 and 7.24, respectively.

Turning to `CC(=O)O[C@H]1C(=O)[C@@]2(C)[C@H]([C@H](OC(=O)c3ccccc3)[C@]3(O)C[C@H](OC(=O)[C@H](O)[C@@H](NC(=O)c4ccc(C)cc4)c4ccccc4)C(C)=C1C3(C)C)[C@]1(OC(C)=O)CO[C@@H]1C[C@@H]2O`, the “log(1/C)” value in data set [1] is listed as 7.77; in data set [2], 7.82.

On to `COc1ccc(C(=O)N[C@@H](c2ccccc2)[C@@H](O)C(=O)O[C@H]2C[C@@]3(O)[C@@H](OC(=O)c4ccccc4)[C@@H]4[C@]5(OC(C)=O)CO[C@@H]5C[C@H](O)[C@@]4(C)C(=O)[C@H](OC(C)=O)C(=C2C)C3(C)C)c(OC)c1`, for which the “log(1/C)” value in data set [1] amounted to 7.12; in data set [2], 7.08.

In the case of `CCc1ccc(C(=O)N[C@@H](c2ccccc2)[C@@H](O)C(=O)O[C@H]2C[C@@]3(O)[C@@H](OC(=O)c4ccccc4)[C@@H]4[C@]5(OC(C)=O)CO[C@@H]5C[C@H](O)[C@@]4(C)C(=O)[C@H](OC(C)=O)C(=C2C)C3(C)C)cc1`, the “log(1/C)” value is given as 7.82 in data set [1] and 7.85 in data set [2].

Consider `CC(=O)O[C@H]1C(=O)[C@@]2(C)[C@H]([C@H](OC(=O)c3ccccc3)[C@]3(O)C[C@H](OC(=O)[C@H](O)[C@@H](NC(=O)c4cccs4)c4ccccc4)C(C)=C1C3(C)C)[C@]1(OC(C)=O)CO[C@@H]1C[C@@H]2O`, for which the “log(1/C)” value in data set [1] came out at 8.7; in data set [2], 7.8.

Consider `CC(=O)O[C@H]1C(=O)[C@@]2(C)[C@H]([C@H](OC(=O)c3ccccc3)[C@]3(O)C[C@H](OC(=O)[C@H](O)[C@@H](NC(=O)c4ccc(Cl)cc4)c4ccccc4)C(C)=C1C3(C)C)[C@]1(OC(C)=O)CO[C@@H]1C[C@@H]2O`, for which the figures for the “log(1/C)” value in data set [1] and in data set [2] were 7.52 and 7.59, respectively.

With `CC(=O)O[C@H]1C(=O)[C@@]2(C)[C@H]([C@H](OC(=O)c3ccccc3)[C@]3(O)C[C@H](OC(=O)[C@H](O)[C@@H](NC(=O)c4ccco4)c4ccccc4)C(C)=C1C3(C)C)[C@]1(OC(C)=O)CO[C@@H]1C[C@@H]2O`, the “log(1/C)” value is reported as 8.3 in data set [1] and 6.7 in data set [2].

In the case of `CC(=O)O[C@@]12CO[C@@H]1C[C@H](O)[C@@]1(C)C(=O)[C@H](O)C3=C(C)[C@@H](OC(=O)[C@H](O)[C@@H](NC(=O)OC(C)(C)C)c4ccccc4)C[C@@](O)([C@@H](OC(=O)c4ccccc4)[C@H]21)C3(C)C.O.O.O` [DOCETAXEL], the “log(1/C)” value in data set [1] came to 8.24; in data set [2], 8.14.

With `CC(=O)O[C@H]1C(=O)[C@@]2(C)[C@H]([C@H](OC(=O)c3ccccc3)[C@]3(O)C[C@H](OC(=O)[C@H](O)[C@@H](NC(=O)/C=C/c4ccccc4)c4ccccc4)C(C)=C1C3(C)C)[C@]1(OC(C)=O)CO[C@@H]1C[C@@H]2O`, the entries for the “log(1/C)” value in data set [1] and in data set [2] were 7.52 and 7.11, respectively.

Regarding `CC(=O)O[C@H]1C(=O)[C@@]2(C)[C@H]([C@H](OC(=O)c3ccccc3)[C@]3(O)C[C@H](OC(=O)[C@H](O)[C@@H](NC(=O)c4cccc5ccccc45)c4ccccc4)C(C)=C1C3(C)C)[C@]1(OC(C)=O)CO[C@@H]1C[C@@H]2O`, the “log(1/C)” value in data set [1] amounted to 7.17; in data set [2] it was 6.43.

Turning to `CC(=O)O[C@H]1C(=O)[C@@]2(C)[C@H]([C@H](OC(=O)c3ccccc3)[C@]3(O)C[C@H](OC(=O)[C@H](O)[C@@H](NC(=O)c4ccc(C(C)(C)C)cc4)c4ccccc4)C(C)=C1C3(C)C)[C@]1(OC(C)=O)CO[C@@H]1C[C@@H]2O`, the “log(1/C)” value is 7.62 in data set [1] and 7.6 in data set [2].

As to `CC(=O)O[C@H]1C(=O)[C@@]2(C)[C@H]([C@H](OC(=O)c3ccccc3)[C@]3(O)C[C@H](OC(=O)[C@H](O)[C@@H](NC(=O)c4ccc(F)cc4)c4ccccc4)C(C)=C1C3(C)C)[C@]1(OC(C)=O)CO[C@@H]1C[C@@H]2O`, the “log(1/C)” value in data set [1] worked out at 7.68; in data set [2], 7.77.

Turning to `CC(=O)O[C@H]1C(=O)[C@@]2(C)[C@H]([C@H](OC(=O)c3ccccc3)[C@]3(O)C[C@H](OC(=O)[C@H](O)[C@@H](NC(=O)c4ccc(-c5ccccc5)cc4)c4ccccc4)C(C)=C1C3(C)C)[C@]1(OC(C)=O)CO[C@@H]1C[C@@H]2O`, the “log(1/C)” value in data set [1] came out at 7.31; in data set [2] it was 6.85.

As to `CCCc1ccc(C(=O)N[C@@H](c2ccccc2)[C@@H](O)C(=O)O[C@H]2C[C@@]3(O)[C@@H](OC(=O)c4ccccc4)[C@@H]4[C@]5(OC(C)=O)CO[C@@H]5C[C@H](O)[C@@]4(C)C(=O)[C@H](OC(C)=O)C(=C2C)C3(C)C)cc1`, the results for the “log(1/C)” value in data set [1] and in data set [2] were 7.74 and 7.77, respectively.

On to `COc1ccc(C(=O)N[C@@H](c2ccccc2)[C@@H](O)C(=O)O[C@H]2C[C@@]3(O)[C@@H](OC(=O)c4ccccc4)[C@@H]4[C@]5(OC(C)=O)CO[C@@H]5C[C@H](O)[C@@]4(C)C(=O)[C@H](OC(C)=O)C(=C2C)C3(C)C)cc1`, for which the “log(1/C)” value in data set [1] amounted to 7.23; in data set [2], 7.43.

Regarding `CC(=O)O[C@H]1C(=O)[C@@]2(C)[C@H]([C@H](OC(=O)c3ccccc3)[C@]3(O)C[C@H](OC(=O)[C@H](O)[C@@H](NC(=O)c4ccccc4)c4ccccc4)C(C)=C1C3(C)C)[C@]1(OC(C)=O)CO[C@@H]1C[C@@H]2O` [PACLITAXEL], the “log(1/C)” value in data set [1] is reported as 7.48; in data set [2], 7.52.
